Assay results taken from patent US20170121322A1, “BET-PROTEIN INHIBITING 3,4-DIHYDROPYRIDO[2,3-B]PYRAZINONES WITH META-SUBSTITUTED AROMATIC AMINO- OR ETHER GROUPS” (Bayer Pharma Aktiengesellschaft, priority 2014, published 2017).

How the values were obtained:
[1] = target: T1, BRD4 bromo domain 1 [BRD4(1)] (Homo sapiens, UniProt O60885); experiment: BRD4(1)/acetylated peptide H4 TR-FRET binding assay; conditions: His6-BRD4(1) (aa 67-152) vs acetylated histone H4 peptide
T1 construct: N-terminally His6-tagged BRD4(1) (amino acids 67-152); made in house; host or cells: E. coli
From the text: To assess the BRD4(1) binding strength of the substances described in this application, the ability thereof to inhibit the interaction between BRD4(1) and acetylated histone H4 in a dose-dependent manner was quantified.
(§1) For this purpose, a time-resolved fluorescence resonance energy transfer (TR-FRET) assay was used, which measures the binding between N-terminally His6-tagged BRD4(1) (amino acids 67-152) and a synthetic acetylated histone H4 (Ac-H4) peptide with sequence GRGK(Ac)GGK(Ac)GLGK(Ac)GGAK(Ac)RHGSGSK-biotin. The recombinant BRD4(1) protein produced in-house according to Filippakopoulos et al., Cell, 2012, 149:214-231 was expressed in E. coli and purified by means of (Ni-NTA) affinity and (Sephadex G-75) size exclusion chromatography. The Ac-H4 peptide can be purchased, for example, from Biosyntan (Berlin, Germany).
(§2) In the assay, typically 11 different concentrations of each substance (0.1 nM, 0.33 nM, 1.1 nM, 3.8 nM, 13 nM, 44 nM, 0.15 μM, 0.51 μM, 1.7 μM, 5.9 μM and 20 μM) were analysed as duplicates on the same microtitre plate. For this purpose, 100-fold concentrated solutions in DMSO were prepared by serial dilutions (1:3.4) of a 2 mM stock solution into a clear, 384-well microtitre plate (Greiner Bio-One, Frickenhausen, Germany). From this, 50 nl were transferred into a black test plate (Greiner Bio-One, Frickenhausen, Germany). The test was started by the addition of 2 μl of a 2.5-fold concentrated BRD4(1) solution (final concentration typically 10 nM in the 5 μl of reaction volume) in aqueous assay buffer [50 mM HEPES pH 7.5, 50 mM sodium chloride (NaCl), 0.25 mM CHAPS and 0.05% serum albumin (BSA)] to the substances in the test plate. This was followed by a 10-minute incubation step at 22° C. for the pre-equilibration of putative complexes between BRD4(1) and the substances. Subsequently, 3 μl of a solution of 1.67 times the concentration (in assay buffer) consisting of Ac-H4 peptide (83.5 nM) and TR-FRET detection reagents [16.7 nM anti-6His-XL665 and 3.34 nM streptavidin cryptate (both from Cisbio Bioassays, Codolet, France), and 668 mM potassium fluoride (KF)] were added.
(§3) The mixture was then incubated in the dark at 22° C. for one hour and then at 4° C. for at least 3 hours and for no longer than overnight. The formation of BRD4(1)/Ac-H4 complexes was determined by the measurement of the resonance energy transfer from the streptavidin-Eu cryptate to the anti-6His-XL665 antibody present in the reaction. For this purpose, the fluorescence emission was measured at 620 nm and 665 nm after excitation at 330-350 nm in a TR-FRET measuring instrument, for example a Rubystar or Pherastar (both from BMG Lab Technologies, Offenburg, Germany) or a Viewlux (Perkin-Elmer). The ratio of the emissions at 665 nm and at 622 nm was taken as an indicator of the amount of BRD4(1)/Ac-H4 complexes formed.
(§4) The data (ratios) obtained were normalized, with 0% inhibition corresponding to the mean from the measurements for a set of controls (typically 32 data points) in which all the reagents were present. In these, in place of test substances, 50 nl of DMSO (100%) were used. Inhibition of 100% corresponded to the mean from the measurements for a set of controls (typically 32 data points) in which all the reagents except BRD4(1) were present. The IC50 was determined by regression analysis based on a 4-parameter equation (minimum, maximum, IC50, Hill; Y=Max+(Min−Max)/(1+(X/IC50)Hill).

[2] = target: T2, BRD4 bromo domain 2 [BRD4(2)] (Homo sapiens, UniProt O60885); experiment: BRD4(2)/acetylated peptide H4 TR-FRET binding assay; conditions: His6-BRD4(2) (aa 357-445) vs acetylated histone H4 peptide
T2 construct: N-terminally His6-tagged BRD4(2) (amino acids 357-445); made in house; host or cells: E. coli
From the text: To assess the BRD4(2) binding strength of the substances described in this application, the ability thereof to inhibit the interaction between BRD4(2) and acetylated histone H4 in a dose-dependent manner was quantified.
as §1, with “BRD4(2)” for “BRD4(1)”, “357-445)” for “67-152)”, “SGRGK(Ac)GGK(Ac)GLGK(Ac)GGAK(Ac)RHRKVLRDNGSGSK-biotin.” for “GRGK(Ac)GGK(Ac)GLGK(Ac)GGAK(Ac)RHGSGSK-biotin.”
as §2, with “concentrated BRD4(2)” for “concentrated BRD4(1)”, “typically 100” for “typically 10”, “chloride (NaCl); 50 mM potassium fluoride (KF);” for “chloride (NaCl),”, “between BRD4(2)” for “between BRD4(1)”, “substances.” for “substances. Subsequently, 3 μl of a solution of 1.67 times the concentration (in assay buffer) consisting of Ac-H4 peptide (83.5 nM) and TR-FRET detection reagents [16.7 nM anti-6His-XL665 and 3.34 nM streptavidin cryptate (both from Cisbio Bioassays, Codolet, France), and 668 mM potassium fluoride (KF)] were added.”
as §3, with “BRD4(2)/Ac-H4” for “BRD4(1)/Ac-H4”, “chelate” for “cryptate”
as §4, with “BRD4(2)” for “BRD4(1)”, “Y=Max+(Min−Max)/(1+(X/IC50)Hill)).” for “Y=Max+(Min−Max)/(1+(X/IC50)Hill).”

MOLM-13 cells = experiment: Cell proliferation assay MOLM-13, method 2 (CellTiterGlo); type: cell-based; conditions: Homo sapiens, MOLM-13, 72 h; acute myeloid leukaemia cells, 500 cells/well, 1536-well, 3-day incubation, CellTiterGlo ATP readout
Description: Alternatively, the MOLM-13 cells (DSMZ, ACC 554) were seeded at a concentration of 500 cells/well in 5 μl of growth medium (RPMI1640, 10% FCS) on 1536-well microtitre plates (method 2).
In method 2, after 3-day incubation with the inhibitor, the ATP concentration was determined as readout for the cell number using the CellTiterGlo kit (Promega). The measurement was carried out using a luminometer.
The substances were tested in the cell lines in Table 2, which represent the indications specified by way of example: […]

SMILES	IC50 [1] [nM]	IC50 [2] [nM]	IC50 (MOLM-13 cells) [nM]
C[C@@H]1C(=O)N(C)c2ccc(Nc3cccc(-c4ccc(C#N)cc4)c3)nc2N1C1CCOCC1 [Example 18, 3′-{[(3R)-1,3-Dimethyl-2-oxo-4-(tetrahydro-2H-pyran-4-yl)-1,2,3,4-tetrahydropyrido[2,3-b]pyrazin-6-yl]amino}biphenyl-4-carbonitrile]	1100	294	1650
COc1ccc(S(C)(=O)=O)cc1Nc1ccc2c(n1)N(C1CCN(C(=O)OC(C)(C)C)CC1)[C@H](C)C(=O)N2C [Example 25, tert-Butyl 4-[(3R)-6-{[2-methoxy-5-(methylsulphonyl)phenyl]amino}-1,3-dimethyl-2-oxo-2,3-dihydropyrido[2,3-b]pyrazin-4(1H)-yl]piperidine-1-carboxylate]	156	135	576
CCS(=O)(=O)c1ccc(Oc2ccc(F)cc2)c(Nc2ccc3c(n2)N(C2CCN(C)CC2)[C@H](C)C(=O)N3C)c1 [Example 32, (3R)-6-{[5-(Ethylsulphonyl)-2-(4-fluorophenoxy)phenyl]amino}-1,3-dimethyl-4-(1-methylpiperidin-4-yl)-3,4-dihydropyrido[2,3-b]pyrazin-2(1H)-one]	945	29	40
C[C@@H]1C(=O)N(C)c2ccc(Nc3cccc(S(C)(=N)=O)c3)nc2N1C1CCOCC1 (stereo partly drawn) [Example 44, (3R)-1,3-Dimethyl-6-{[3-(S-methylsulphonimidoyl)phenyl]amino}-4-(tetrahydro-2H-pyran-4-yl)-3,4-dihydropyrido[2,3-b]pyrazin-2(1H)-one]	3640	7340	> 10000

These reach a lower IC50 [1]. Values come first.

IC50 [1] [nM]	IC50 [2] [nM]	IC50 (MOLM-13 cells) [nM]	SMILES
27	64	51	C=CCS(=O)(=O)c1ccc(OC)c(Nc2ccc3c(n2)N(C2CCN(C)CC2)[C@H](C)C(=O)N3C)c1 [Example 23, (3R)-6-{[5-(Allylsulphonyl)-2-methoxyphenyl]amino}-1,3-dimethyl-4-(1-methylpiperidin-4-yl)-3,4-dihydropyrido[2,3-b]pyrazin-2(1H)-one]
86	78	147	COc1ccc(S(=O)(=O)C(C)C)cc1Nc1ccc2c(n1)N(C1CCN(C(=O)OC(C)(C)C)CC1)[C@H](C)C(=O)N2C [Example 24, tert-Butyl 4-[(3R)-6-{[5-(isopropylsulphonyl)-2-methoxyphenyl]amino}-1,3-dimethyl-2-oxo-2,3-dihydropyrido[2,3-b]pyrazin-4(1H)-yl]piperidine-1-carboxylate]
20	114	73	CC(C)S(=O)(=O)c1cccc(Nc2ccc3c(n2)N(C2CCN(CCC(F)(F)F)CC2)[C@H](C)C(=O)N3C)c1 [Example 30, (3R)-6-{[3-(Isopropylsulphonyl)phenyl]amino}-1,3-dimethyl-4-[1-(3,3,3-trifluoropropyl)piperidin-4-yl]-3,4-dihydropyrido[2,3-b]pyrazin-2(1H)-one]
15	51	26	CCS(=O)(=O)c1ccc(Oc2ccccc2)c(Nc2ccc3c(n2)N(C2CCN(C)CC2)[C@H](C)C(=O)N3C)c1 [Example 33, (3R)-6-{[5-(Ethylsulphonyl)-2-phenoxyphenyl]amino}-1,3-dimethyl-4-(1-methylpiperidin-4-yl)-3,4-dihydropyrido[2,3-b]pyrazin-2(1H)-one]
34	49	160	CCS(=O)(=O)c1ccc(Oc2ccccc2)c(Nc2ccc3c(n2)N(C2CCOCC2)[C@H](C)C(=O)N3C)c1 [Example 36, (3R)-6-{[5-(Ethylsulphonyl)-2-phenoxyphenyl]amino}-1,3-dimethyl-4-(tetrahydro-2H-pyran-4-yl)-3,4-dihydropyrido[2,3-b]pyrazin-2(1H)-one]
35	39	124	CCS(=O)(=O)c1ccc(Oc2ccc(F)cc2)c(Nc2ccc3c(n2)N(C2CCOCC2)[C@H](C)C(=O)N3C)c1 [Example 37, (3R)-6-{[5-(Ethylsulphonyl)-2-(4-fluorophenoxy)phenyl]amino}-1,3-dimethyl-4-(tetrahydro-2H-pyran-4-yl)-3,4-dihydropyrido[2,3-b]pyrazin-2(1H)-one]
133	630	708	C[C@@H]1C(=O)N(C)c2ccc(Nc3cccc(N4CCN(C)CC4)c3)nc2N1C1CCOCC1 [Example 41, (3R)-1,3-Dimethyl-6-{[3-(4-methylpiperazin-1-yl)phenyl]amino}-4-(tetrahydro-2H-pyran-4-yl)-3,4-dihydropyrido[2,3-b]pyrazin-2(1H)-one]
